# Results taken from patent US20250120970A1, “PHARMACEUTICAL COMPOSITION INCLUDING PHTHALAZINONE DERIVATIVE FOR CO-ADMINISTRATION WITH ANTICANCER DRUG” (priority 2022, published 2025).
# Counter-ions that a name gives are not always drawn.
# Columns and labels:
# SNU-484 [1] = experiment: MTT assay, irinotecan with or without hydrochloride compound of Formula 1; type: cell-based; conditions: Homo sapiens, 120 h, 5 days, irinotecan alone or with 1 μM hydrochloride compound of Formula 1
# SNU-216 = experiment: as above; type: cell-based; conditions: Homo sapiens, 120 h, 5 days, irinotecan alone or with 1 μM hydrochloride compound of Formula 1
# SNU-668 [2] = experiment: as above; type: cell-based; conditions: Homo sapiens, SNU668, 120 h, 5 days, irinotecan alone or with 1 μM hydrochloride compound of Formula 1
# AGS [3] = experiment: as above; type: cell-based; conditions: Homo sapiens, 120 h, 5 days, irinotecan alone or with 1 μM hydrochloride compound of Formula 1
# SNU-638 [4] = experiment: as above; type: cell-based; conditions: Homo sapiens, 120 h, 5 days, irinotecan alone or with 1 μM hydrochloride compound of Formula 1
# [5] = tested on: five human-derived gastric cancer cell lines (AGS, SNU-668, SNU-216, SNU-484, and SNU-638); experiment: MTT assay, irinotecan experiment, summary over the five cell lines; conditions: 5 days, irinotecan with or without 1 μM hydrochloride compound of Formula 1
# [6] = tested on: MKN45 human gastric cancer xenograft; experiment: subcutaneous MKN45 human gastric cancer xenograft model, tumor volume; conditions: for Tumor volume (Mean ± SEM): Formula 1 HCl 2 mg/kg p.o. QD, irinotecan 5 mg/kg i.v. QW
# AGS [7] = experiment: MTT assay, oxaliplatin with or without hydrochloride compound of Formula 1; type: cell-based, human; conditions: 5 days, oxaliplatin alone or with 1 μM hydrochloride compound of Formula 1
# Excerpt: (§1) Oxaliplatin (M.W. 397.29) was obtained from Sigma Aldrich.
# SNU-484 [8] = experiment: as above; type: cell-based, human; conditions: 5 days, oxaliplatin alone or with 1 μM hydrochloride compound of Formula 1
# Excerpt: as §1
# SNU-638 [9] = experiment: as above; type: cell-based, human; conditions: 5 days, oxaliplatin alone or with 1 μM hydrochloride compound of Formula 1
# Excerpt: as §1
# SNU-668 [10] = experiment: as above; type: cell-based, human; conditions: 5 days, oxaliplatin alone or with 1 μM hydrochloride compound of Formula 1
# Excerpt: as §1
# [11] = tested on: five human-derived gastric cancer cell lines (AGS, SNU-668, SNU-216, SNU-484, and SNU-638); experiment: MTT assay, oxaliplatin experiment, summary over the cell lines; type: cell-based; conditions: 5 days, oxaliplatin with or without 1 μM hydrochloride compound of Formula 1
# Excerpt: as §1
compound,measurement,setting,value
"CCc1c2c(nc3ccc(OC(=O)N4CCC(N5CCCCC5)CC4)cc13)-c1cc3c(c(=O)n1C2)COC(=O)[C@]3(O)CC [Comparative Example 1, Irinotecan hydrochloride]",IC50,SNU-484 [1],789 nM
same,IC50,SNU-216,2010 nM
same,IC50,SNU-668 [2],4300 nM
same,IC50,AGS [3],367 nM
same,IC50,SNU-638 [4],657 nM
same,"cell death (cell viability, FIG. 1)",[5],exhibited an effect of cell death
"O=C(c1cc(Cc2n[nH]c(=O)c3ccccc23)ccc1F)N1CC(CNC2CC2)C1 [Comparative Example 4, 4-[3-(3-[(cyclopropylamino)methyl]azetidine-1-carbonyl)-4-fluorobenzyl]phthalazine-1 (2H)-on]",Tumor volume (Mean ± SEM),"[6]; 0 day (grouping date), MKN45 xenograft mice",156.60 mm^3
same,Tumor volume (Mean ± SEM),"[6]; 3rd day, MKN45 xenograft mice",190.75 mm^3
same,Tumor volume (Mean ± SEM),"[6]; 7th day, MKN45 xenograft mice",272.69 mm^3
same,Tumor volume (Mean ± SEM),"[6]; 10th day, MKN45 xenograft mice",359.75 mm^3
same,Tumor volume (Mean ± SEM),"[6]; 14th day, MKN45 xenograft mice",461.91 mm^3
same,Tumor volume (Mean ± SEM),"[6]; 17th day, MKN45 xenograft mice",588.26 mm^3
same,Tumor growth inhibition (TGI),"[6]; 21st day, Formula 1 HCl 2 mg/kg QD, irinotecan 5 mg/kg QW",19.69%
same,Tumor size on 21st day (Mean ± SEM),"[6]; 21st day, MKN45 xenograft mice, Formula 1 HCl 2 mg/kg QD, irinotecan 5 mg/kg QW",727.36 ± 69.46 mm^3
same,Tumor volume (Mean ± SEM),"[6]; 21st day, MKN45 xenograft mice",727.36 mm^3
same,T/C,"[6]; 21st day, treatment vs vehicle control tumor volume",80.31%
"O=C1[O][Pt-2]2([NH2+]C3CCCC[C@H]3[NH2+]2)[O]C1=O (stereo partly drawn) [Comparative Example 2, Oxaliplatin]",IC50,AGS [7],2380 nM
same,IC50,SNU-484 [8],10400 nM
same,IC50,SNU-638 [9],30300 nM
same,IC50,SNU-668 [10],11200 nM
same,"cell death (cell viability, FIG. 2)",[11],exhibited an effect of cell death
